Patent publication US11160280B2, “Pesticial compounds” (BASF SE, priority 2017, dated 2021)

What was measured:
Format in all cases: in vivo
[1] = system: Orchid thrips (Dichromothrips corbetti); test: Action on orchid thrips (Dichromothrips corbetti), floral-immersion technique; details: adult thrips, mortality 72 hours after treatment, read-out: mortality in comparison with untreated controls
Procedure: Example B2: Action on Orchid thrips (Dichromothrips corbetti)
Dichromothrips corbetti adults used for bioassay were obtained from a colony maintained continuously under laboratory conditions. For testing purposes, the test compound is diluted in a 1:1 mixture of acetone:water (vol:vol), plus Kinetic® HV at a rate of 0.01% v/v.
Thrips potency of each compound was evaluated by using a floral-immersion technique. All petals of individual, intact orchid flowers were dipped into treatment solution and allowed to dry in Petri dishes. Treated petals were placed into individual re-sealable plastic along with about […]. All test arenas were held under continuous light and a temperature of about 28° C. for duration of the assay. After 3 days, the numbers of live thrips were counted on each petal. The percent mortality was recorded 72 hours after treatment.

[2] = system: yellow fever mosquito (Aedes aegypti); test: whole plant or invertebrate; details: 48 h, larval mortality visually assessed after 2 days, read-out: mortality in comparison with untreated controls
Procedure: Example B1: Action on Yellow Fever Mosquito (Aedes aegypti)
For evaluating control of yellow fever mosquito (Aedes aegypti) the test unit consisted of 96-well-microtiter plates containing 200 μl of tap water per well and 5-15 freshly hatched A. aegypti larvae.
The active compounds were formulated using a solution containing 75% (v/v) water and 25% (v/v) DMSO. Different concentrations of formulated compounds or mixtures were sprayed onto the insect diet at 2.5 μl, using a custom built micro atomizer, at two replications.
After application, microtiter plates were incubated at 28+1° C., 80+5% RH for 2 days. Larval mortality was then visually assessed.

[3] = system: tobacco budworm (Heliothis virescens); test: Action on tobacco budworm (Heliothis virescens), eggs on insect diet in microtiter plates; details: 120 h, egg and larval mortality after 5 days, read-out: mortality in comparison with untreated controls
Procedure: Example B5: Action on Tobacco Budworm (Heliothis virescens)
For evaluating control of tobacco budworm (Heliothis virescens) the test unit consisted of 96-well-microtiter plates containing an insect diet and 15-25 H. virescens eggs.
The compounds were formulated using a solution containing 75% v/v water and 25% v/v DMSO. Different concentrations of formulated compounds were sprayed onto the insect diet at 10 μl, using a custom built micro atomizer, at two replications.
After application, microtiter plates were incubated at about 28±1° C. and about 80±5% relative humidity for 5 days. Egg and larval mortality was then visually assessed.

[4] = system: Diamond Back Moth (Plutella xylostella); test: Action on diamond back moth (Plutella xylostella), cabbage leaf dip; details: foliar, 3rd instar larvae on dipped cabbage leaves, mortality 72 hours after treatment, read-out: mortality in comparison with untreated controls
Procedure: Example B6: Action on Diamond Back Moth (Plutella xylostella)
The active compound is dissolved at the desired concentration in a mixture of 1:1 (vol:vol) distilled water:acetone. Surfactant (Kinetic® HV) is added at a rate of 0.01% (vol/vol). The test solution is prepared at the day of use.
Leaves of cabbage were dipped in test solution and air-dried. Treated leaves were placed in petri dishes lined with moist filter paper and inoculated with ten 3rd instar larvae. Mortality was recorded 72 hours after treatment. Feeding damages were also recorded using a scale of 0-100%.

[5] = system: Silverleaf Whitefly (Bemisia argentifoli) (Adults); test: Action on silverleaf whitefly (Bemisia argentifoli) adults on sprayed cotton plants; details: Bemisia argentifolii, 72 h, mortality 3 days after treatment, read-out: mortality in comparison with untreated controls
Procedure: Example B4: Action on Silverleaf Whitefly (Bemisia argentifoli) (Adults)
The active compounds were formulated by a Tecan liquid handler in 100% cyclohexanone as a 10,000 ppm solution supplied in tubes. The 10,000 ppm solution was serially diluted in 100% cyclohexanone to make interim solutions. These served as stock solutions for which final dilutions were made by the Tecan in 50% acetone:50% water (v/v) into 5 or 10 ml glass vials. A nonionic surfactant (Kinetic®) was included in the solution at a volume of 0.01% (v/v). The vials were then inserted into an automated electrostatic sprayer equipped with an atomizing nozzle for application to plants/insects.
Cotton plants at the cotyledon stage (one plant per pot) were sprayed by an automated electrostatic plant sprayer equipped with an atomizing spray nozzle. The plants were dried in the sprayer fume hood and then removed from the sprayer. Each pot was pla-ced into a plastic cup and about 10 to 12 whitefly adults (approximately 3-5 days old) were introduced. The insects were collected using an aspirator and a nontoxic Tygon® tubing connected to a barrier pipette tip. The tip, containing the collected insects, was then gently inserted into the soil containing the treated plant, allowing insects to crawl out of the tip to reach the foliage for feeding. Cups were covered with a reusable screened lid. Test plants were maintained in a growth room at about 25° C. and about 20-40% relative humidity for 3 days, avoiding direct exposure to fluorescent light (24 hour photoperiod) to prevent trapping of heat inside the cup. Mortality was assessed 3 days after treatment, compared to untreated control plants.

[6] = system: Southern Armyworm (Spodoptera eridania), 2nd Instar Larvae; test: Action on southern armyworm (Spodoptera eridania), 2nd instar larvae on sprayed lima bean plants; details: 96 h, 2nd instar larvae on lima bean plants, 4 days after treatment, read-out: mortality in comparison with untreated controls
Procedure: Example B7: Action on Southern Armyworm (Spodoptera eridania), 2nd Instar Larvae
The active compounds were formulated by a Tecan liquid handler in 100% cyclohexanone as a 10,000 ppm solution supplied in tubes. The 10,000 ppm solution was serially diluted in 100% cyclohexanone to make interim solutions. These served as stock solutions for which final dilutions were made by the Tecan in 50% acetone:50% water (v/v) into 10 or 20 ml glass vials. A nonionic surfactant (Kinetic®) was included in the solution at a volume of 0.01% (v/v). The vials were then inserted into an automated electrostatic sprayer equipped with an atomizing nozzle for application to plants/insects.
Lima bean plants (variety Sieva) were grown 2 plants to a pot and selected for treatment at the 1st true leaf stage. Test solutions were sprayed onto the foliage by an automated electrostatic plant sprayer equipped with an atomizing spray nozzle. The plants were dried in the sprayer fume hood and then removed from the sprayer. Each pot was placed into perforated plastic bags with a zip closure. About 10 to 11 armyworm larvae were placed into the bag and the bags zipped closed. Test plants were maintained in a growth room at about 25° C. and about 20-40% relative humidity for 4 days, avoiding direct exposure to fluorescent light (24 hour photoperiod) to prevent trapping of heat inside the bags. Mortality and reduced feeding were assessed 4 days after treatment, compared to untreated control plants.

[7] = system: boll weevil (Anthonomus grandis); test: Action on boll weevil (Anthonomus grandis), eggs on insect diet in microtiter plates; details: 120 h, egg and larval mortality after 5 days, read-out: mortality in comparison with untreated controls
Procedure: Example B3: Action on Boll Weevil (Anthonomus grandis)
For evaluating control of boll weevil (Anthonomus grandis) the test unit consisted of 96-well-microtiter plates containing an insect diet and 5-10 A. grandis eggs.
The compounds were formulated using a solution containing 75% v/v water and 25% v/v DMSO. Different concentrations of formulated compounds were sprayed onto the insect diet at 5 μl, using a custom built micro atomizer, at two replications.
After application, microtiter plates were incubated at about 25±1° C. and about 75±5% relative humidity for 5 days. Egg and larval mortality was then visually assessed.

CC(C)c1ccccc1/N=C1\SCC(=O)N1/N=C/c1ccc2c(C(C)Oc3ccc(OC(F)(F)F)cc3)nn(C)c2c1 (stereo not drawn) [Example C-14, (2Z)-2-(2-isopropylphenyl)imino-3-[(E)-[1-methyl-3-[1-[4-(trifluoromethoxy)phenoxy]ethyl]indazol-6-yl]methyleneamino]thiazolidin-4-one]
≥ 75%: mortality at 500 ppm [1] | mortality at 800 ppm [2] | mortality at 800 ppm [3] | mortality at 500 ppm [4] | mortality at 300 ppm [5] | mortality at 300 ppm [6]

CC(C)c1ccccc1NC(=S)N/N=C/c1ccc2c(COc3ccc(OC(F)(F)F)cc3)nn(C)c2c1 [Example C-3, 1-(2-isopropylphenyl)-3-[(E)-[1-methyl-3-[[4-(trifluoromethoxy)phenoxy]methyl]indazol-6-yl]methyleneamino]thiourea]
≥ 75%: mortality at 500 ppm [1] | mortality at 800 ppm [2] | mortality at 800 ppm [7] | mortality at 800 ppm [3] | mortality at 500 ppm [4] | mortality at 300 ppm [5] | mortality at 300 ppm [6]

Cc1cccc(C)c1N1C(=O)CS/C1=N\N=C\c1ccc2c(COc3ccc(OC(F)(F)F)cc3)nn(C)c2c1 [Example C-2, (2Z)-3-(2,6-dimethylphenyl)-2-[(E)-[1-methyl-3-[[4-(trifluoromethoxy)phenoxy]methyl]indazol-6-yl]methylenehydrazono]thiazolidin-4-one]
≥ 75%: mortality at 500 ppm [1] | mortality at 800 ppm [2] | mortality at 800 ppm [7] | mortality at 800 ppm [3] | mortality at 500 ppm [4]

Cc1cccc(C)c1NC(=S)N/N=C/c1ccc2c(COc3ccc(OC(F)(F)F)cc3)nn(C)c2c1 [Example C-1, 1-(2,6-dimethylphenyl)-3-[(E)-[1-methyl-3-[[4-(trifluoromethoxy)phenoxy]methyl]indazol-6-yl]methyleneamino]thiourea]
≥ 75%: mortality at 500 ppm [1] | mortality at 800 ppm [2] | mortality at 800 ppm [7] | mortality at 800 ppm [3] | mortality at 500 ppm [4] | mortality at 300 ppm [6]

CC(C)c1ccccc1N1C(=O)CS/C1=N\N=C\c1ccc2c(C(C)Oc3ccc(OC(F)(F)F)cc3)nn(C)c2c1 (stereo not drawn) [Example C-13, (2Z)-3-(2-isopropylphenyl)-2-[(E)-[1-methyl-3-[1-[4-(trifluoromethoxy)phenoxy]ethyl]indazol-6-yl]methylenehydrazono]thiazolidin-4-one]
≥ 75%: mortality at 500 ppm [1] | mortality at 800 ppm [2] | mortality at 800 ppm [3] | mortality at 500 ppm [4] | mortality at 300 ppm [5] | mortality at 300 ppm [6]

CC(C)c1ccccc1N1C(=O)CS/C1=N\N=Cc1cc(F)c2c(C(=O)N(C)c3ccc(OC(F)(F)F)cc3)nn(C)c2c1 [Example C-19, 4-fluoro-6-[[(Z)-[3-(2-isopropylphenyl)-4-oxo-thiazolidin-2-ylidene]hydrazono]methyl]-N,1-dimethyl-N-[4-(trifluoromethoxy)phenyl]indazole-3-carboxamide]
≥ 75%: mortality at 500 ppm [1] | mortality at 800 ppm [2] | mortality at 800 ppm [7] | mortality at 800 ppm [3] | mortality at 500 ppm [4] | mortality at 300 ppm [6]

CC(C)c1ccccc1NC(=S)N/N=C/c1cc2c(cn1)c(COc1ccc(OC(F)(F)F)cc1)nn2C [Example C-15, 1-(2-isopropylphenyl)-3-[(E)-[1-methyl-3-[[4-(trifluoromethoxy)phenoxy]methyl]pyrazolo[4,3-c]pyridin-6 yl]methyleneamino]thiourea]
≥ 75%: mortality at 500 ppm [1] | mortality at 800 ppm [2] | mortality at 800 ppm [7] | mortality at 800 ppm [3] | mortality at 500 ppm [4] | mortality at 300 ppm [6]

CC(C)c1ccccc1N1C(=O)CS/C1=N\N=C\c1ccc2c(COc3ccc(OC(F)(F)F)cc3)nn(C)c2c1 [Example C-4, (2Z)-3-(2-isopropylphenyl)-2-[(E)-[1-methyl-3-[[4-(trifluoromethoxy)phenoxy]methyl]indazol-6-yl]methylenehydrazono]thiazolidin-4-one]
≥ 75%: mortality at 500 ppm [1] | mortality at 800 ppm [2] | mortality at 800 ppm [7] | mortality at 500 ppm [4]

CC(C)c1ccccc1NC(=S)N/N=C/c1ccc2c(C(=O)Nc3ccc(OC(F)(F)F)cc3)nn(C)c2c1 [Example C-7, 6-[(E)-[(2-isopropylphenyl)carbamothioylhydrazono]methyl]-1-methyl-N-[4-(trifluoromethoxy)phenyl]indazole-3-carboxamide]
≥ 75%: mortality at 800 ppm [2] | mortality at 800 ppm [7] | mortality at 800 ppm [3] | mortality at 500 ppm [4] | mortality at 300 ppm [6]
